Reference: US6562849B1, “Amine derivative compounds” (Sankyo Company, Limited, priority 1999, dated 2003)

Tested on: KK mice (age 4-5 months) with diabetes
Test: Blood sugar lowering effect in KK mice with diabetes
Assay type: in vivo
Details: Mus musculus, po, 72 h, powder diet containing 0.01% of the test compound for 3 days, plasma glucose vs control group, groups of 4 mice, read-out: Blood sugar decrease rate (%)
Excerpt: [Test Example] Blood Sugar Lowering Effect
Blood samples were collected from the caudal vein of KK mice (age 4-5 months) with diabetes followed by measurement of their blood sugar levels. Next, after assigning the mice to groups (of 4 mice each) so that the mean blood sugar levels of each group were the same, mouse laboratory powder diet (F-1, Funabashi Farms), prepared so as to contain 0.01% of the test compound, was given to the mice for 3 days. The groups of mice that were given test compound were designated as the drug dose groups. It should be noted that a group that was given laboratory diet not containing the test compound was designated as the control group. Blood samples were collected from the caudal vein of the mice 3 days later and the glucose concentration of the plasma obtained by centrifugal separation was measured with a glucose analyzer (Glucoloader, A & T Corp.). The mean decrease of blood sugar rate (%) was determined according to the following equation.
Blood sugar decrease rate (%)=(mean blood sugar value of control group−mean blood sugar value […] of drug dose group)×100/(blood sugar value of control group)

## Cn1c(COc2ccc(CC3SC(=O)NC3=O)cc2)nc2ccc(Oc3ccc(NC(=S)NC4CCCCC4)cc3)cc21 (centres unmarked) [Example 9, 1-(4-[2-[4-(2,4-Dioxothiazolidin-5-ylmethyl)phenoxymethyl]-1-methyl-1H-benzimidazol-6-yloxy]phenyl)-3-(cyclohexyl)thiourea]
  inhibition in vivo at 0.01 % in diet: 47.1%

## Cn1c(COc2ccc(CC3SC(=O)NC3=O)cc2)nc2ccc(Oc3ccc(NS(C)(=O)=O)cc3)cc21 (centres unmarked) [Example 18, N-(4-[2-[4-(2,4-Dioxothiazolidin-5-ylmethyl)phenoxymethyl]-1-methyl-1H-benzimidazol-6-yloxy]phenyl)methanesulfonamide]
  inhibition in vivo at 0.01 % in diet: 61%
